Data on 14 molecules can be found in PubChem BioAssay (NCI).

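Test compounds were applied to cells in 96-well plates for 48 hours at 5 doses. Definition used: TGI = concentration required for complete inhibition of growth.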

Test systems include OVCAR-3 ovarian; SR leukemia; SF-295 CNS; K-562 leukemia; SNB-19 CNS; UACC-257 melanoma; NCI/ADR-RES ovarian; MDA-MB-435; HT29 colon; T-47D breast; MCF7 breast; HOP-92 NSCLC; ACHN renal; CCRF-CEM leukemia.
Holding throughout (assay): growth of human tumour cells (NCI), 48 h

In the case of `O=C(Nn1c(-c2ccccc2)nc2ccccc2c1=O)c1ccc(Cl)cc1`, the TGI in the test on OVCAR-3 ovarian, in the test with SR leukemia, in the test with SF-295 CNS, with K-562 leukemia, with SNB-19 CNS and with UACC-257 melanoma was more than 100 µM in each case. The TGI in the test with NCI/ADR-RES ovarian, with MDA-MB-435, in the test on HT29 colon, with T-47D breast, in the test with MCF7 breast and in the test on HOP-92 NSCLC was more than 100 µM in each case. Also, the TGI in the test on ACHN renal and in the test with CCRF-CEM leukemia was more than 100 µM in each case.
As for `COC(=O)[C@H](Cc1ccccc1)NC(=O)c1ccc(CNC(=O)/C=C/c2csc(-c3ccccc3)n2)cc1`, the TGI in the test with OVCAR-3 ovarian was 26.3 µM; in the test on SR leukemia it was more than 21.5 µM; with SF-295 CNS, 25.8 µM; in the test with K-562 leukemia, more than 31.9 µM; in the test on SNB-19 CNS, 39.6 µM; in the test on UACC-257 melanoma, 7.72 µM. Further, the TGI in the test on NCI/ADR-RES ovarian was more than 91.7 µM; in the test with MDA-MB-435, more than 36.7 µM; in the test with HT29 colon, 43.1 µM; in the test on T-47D breast, 7.12 µM; in the test with MCF7 breast it was 32 µM; in the test with HOP-92 NSCLC, 9.88 µM. The TGI with ACHN renal is 44 µM; in the test on CCRF-CEM leukemia it was more than 100 µM.
As to `CN(NC1=NCCO1)c1ccc2ccccc2c1`, the TGI is 72.7 µM in the test with OVCAR-3 ovarian; more than 100 µM in the test with SR leukemia; more than 100 µM in the test with SF-295 CNS; 66.1 µM with K-562 leukemia; more than 100 µM in the test with SNB-19 CNS; more than 100 µM in the test on UACC-257 melanoma. Further, the TGI in the test on NCI/ADR-RES ovarian was more than 100 µM; in the test with MDA-MB-435, more than 100 µM; in the test with HT29 colon it was more than 100 µM; in the test on T-47D breast, more than 100 µM; in the test on MCF7 breast, more than 100 µM; in the test on HOP-92 NSCLC it was 57.3 µM. Also, the results for the TGI with ACHN renal and with CCRF-CEM leukemia were more than 100 µM and 49.5 µM, respectively.
As for `Cc1ccc(S(=O)(=O)N(CC(O)COc2ccccc2)c2c(F)cccc2F)cc1` (stereo unspecified), the TGI with OVCAR-3 ovarian was 30.3 µM; in the test with SR leukemia, 61.4 µM; with SF-295 CNS, 86 µM; with K-562 leukemia it was more than 100 µM; with SNB-19 CNS it was more than 100 µM; in the test with UACC-257 melanoma it was 44.5 µM. For the same molecule, the TGI turned out to be 43.1 µM in the test with NCI/ADR-RES ovarian; 30.5 µM in the test on MDA-MB-435; 36.3 µM in the test with HT29 colon; 20.1 µM in the test with T-47D breast; 30.7 µM in the test with MCF7 breast; 8.48 µM in the test on HOP-92 NSCLC. In addition, the TGI in the test on ACHN renal stood at 40.1 µM; in the test on CCRF-CEM leukemia, 95.8 µM.
As for `CSC(=O)/C=C1\SS/C(=C\C(=O)SC)S1`, the TGI in the test on OVCAR-3 ovarian was 11.2 µM; in the test with SR leukemia it was more than 100 µM; in the test on SF-295 CNS it was 13.7 µM; with K-562 leukemia, more than 100 µM; in the test on SNB-19 CNS it was 20.7 µM; with UACC-257 melanoma it was 11.3 µM. The TGI in the test with NCI/ADR-RES ovarian was found to be 8.71 µM; in the test with MDA-MB-435, 7.08 µM; with HT29 colon, 7.03 µM; in the test on T-47D breast it was 20.6 µM; in the test on MCF7 breast it was 9.19 µM; with HOP-92 NSCLC, 7.87 µM. The figures for the TGI in the test with ACHN renal and in the test on CCRF-CEM leukemia were 10.2 µM and more than 100 µM, respectively.
Regarding `CCOC(=O)c1cn(CC)c(=O)n2c1nc1ccccc12`, the TGI in the test on OVCAR-3 ovarian, in the test with SR leukemia, in the test on SF-295 CNS, in the test on K-562 leukemia, in the test on SNB-19 CNS and in the test with UACC-257 melanoma was more than 100 µM in each case. The TGI with NCI/ADR-RES ovarian, in the test on MDA-MB-435, in the test with HT29 colon, with T-47D breast, in the test on MCF7 breast and with HOP-92 NSCLC was more than 100 µM each time. In addition, the TGI with ACHN renal and with CCRF-CEM leukemia was more than 100 µM in each case.
As to `N#Cc1c(NC(=O)C(F)(F)F)sc2c3c(=O)c4ccccc4c(=O)c=3oc3ccccc3c12`, the TGI is more than 80.1 µM in the test on OVCAR-3 ovarian; 13.5 µM in the test on SR leukemia; 35.8 µM in the test with SF-295 CNS; 75.3 µM in the test on K-562 leukemia; 49.5 µM in the test on SNB-19 CNS; 35.7 µM in the test with UACC-257 melanoma. The TGI is 61.7 µM in the test on NCI/ADR-RES ovarian; 41.4 µM with MDA-MB-435; 41.6 µM with HT29 colon; 59.3 µM with T-47D breast; more than 89.9 µM with MCF7 breast; more than 53.6 µM with HOP-92 NSCLC. In addition, the figures for the TGI in the test on ACHN renal and with CCRF-CEM leukemia were more than 58 µM and 12.5 µM, respectively.
For the molecule `N#Cc1ccccc1OCCOc1ccccc1C#N`, the TGI in the test with OVCAR-3 ovarian, in the test on SR leukemia, with SF-295 CNS, in the test on K-562 leukemia, in the test on SNB-19 CNS and in the test with UACC-257 melanoma was more than 100 µM in each case. The TGI with NCI/ADR-RES ovarian, in the test with MDA-MB-435, with HT29 colon, in the test with T-47D breast, with MCF7 breast and with HOP-92 NSCLC was more than 100 µM each time. Further, the TGI in the test with ACHN renal and in the test with CCRF-CEM leukemia was more than 100 µM throughout.
In the case of `CCN(CC)CCNc1ccc([N+](=O)[O-])c2nc3ccc(OC)cc3c(NCCN(CC)CC)c12`, the TGI in the test on OVCAR-3 ovarian is 4.95 µM; in the test with SR leukemia, 0.609 µM; with SF-295 CNS, 2.6 µM; with K-562 leukemia, 1.38 µM; with SNB-19 CNS, 2.78 µM; with UACC-257 melanoma, more than 10 µM. The TGI in the test on NCI/ADR-RES ovarian was 2.76 µM; in the test with MDA-MB-435, more than 4.78 µM; in the test on HT29 colon, 2.63 µM; with T-47D breast, more than 10 µM; in the test on MCF7 breast, 2.71 µM; in the test with HOP-92 NSCLC it was 5.42 µM. In addition, the TGI was more than 10 µM in the test with ACHN renal and 1.54 µM in the test with CCRF-CEM leukemia.
In the case of `CC(N)(CC(O)(C(F)(F)Cl)C(F)(F)Cl)C(=O)O` (stereo unspecified), the TGI in the test on OVCAR-3 ovarian, in the test on SR leukemia, in the test on SF-295 CNS, with K-562 leukemia, with SNB-19 CNS and in the test on UACC-257 melanoma was more than 10 µM in each case. For the same molecule, the TGI in the test on NCI/ADR-RES ovarian, with MDA-MB-435, with HT29 colon, in the test on T-47D breast, in the test on MCF7 breast and in the test with HOP-92 NSCLC was more than 10 µM each time. Also, the TGI in the test on ACHN renal and in the test on CCRF-CEM leukemia was more than 10 µM throughout.
For the molecule `NC1=NC2(COC(c3ccccc3)(c3ccccc3)c3ccccc3)OC(COC(c3ccccc3)(c3ccccc3)c3ccccc3)C(O)C2O1` (stereo unspecified), the TGI in the test on OVCAR-3 ovarian, with SR leukemia, with SF-295 CNS, in the test on K-562 leukemia, with SNB-19 CNS and with UACC-257 melanoma was more than 100 µM in each case. The TGI in the test with NCI/ADR-RES ovarian, in the test on MDA-MB-435, in the test on HT29 colon, in the test on T-47D breast, with MCF7 breast and in the test with HOP-92 NSCLC was more than 100 µM in each case. The TGI with ACHN renal and with CCRF-CEM leukemia was more than 100 µM in each case.
`Cc1nc2c(sc3nc4c(cc32)CCC4)c(=O)o1`: the TGI with OVCAR-3 ovarian is more than 100 µM; in the test with SR leukemia, more than 100 µM; in the test on SF-295 CNS it was more than 100 µM; in the test with K-562 leukemia, more than 100 µM; in the test with SNB-19 CNS, more than 96.6 µM; with UACC-257 melanoma it was more than 100 µM. Moreover, the TGI with NCI/ADR-RES ovarian is more than 100 µM; with MDA-MB-435 it was 99.3 µM; in the test on HT29 colon it was more than 100 µM; in the test with T-47D breast it was more than 100 µM; with MCF7 breast, more than 100 µM; in the test on HOP-92 NSCLC, more than 96.4 µM. The TGI is more than 100 µM in the test with ACHN renal and more than 88.9 µM in the test with CCRF-CEM leukemia.
On to `CC(=O)c1ccc(Nc2c3c(nc4ccccc24)CCCC3)cc1`, for which the TGI is more than 44.7 µM in the test on OVCAR-3 ovarian; 74.2 µM with SR leukemia; more than 43.2 µM in the test with SF-295 CNS; more than 100 µM in the test on K-562 leukemia; 99.5 µM with SNB-19 CNS; more than 74 µM in the test on UACC-257 melanoma. The TGI in the test on NCI/ADR-RES ovarian was 56.2 µM; in the test with MDA-MB-435, 13.8 µM; with HT29 colon, 42.6 µM; in the test on T-47D breast, more than 52.2 µM; with MCF7 breast it was more than 100 µM; in the test on HOP-92 NSCLC it was more than 88.8 µM. For the same molecule, the TGI with ACHN renal and with CCRF-CEM leukemia was more than 100 µM each time.
Take `COc1ccc2nc3c(c(N)c2c1)C1CCC3C1(C)C` (stereo unspecified): the TGI with OVCAR-3 ovarian is more than 100 µM; with SR leukemia, more than 100 µM; in the test on SF-295 CNS it was 69.7 µM; with K-562 leukemia, more than 100 µM; in the test with SNB-19 CNS, more than 100 µM; in the test on UACC-257 melanoma it was 40.5 µM. The TGI in the test on NCI/ADR-RES ovarian was more than 100 µM; in the test on MDA-MB-435 it was more than 100 µM; with HT29 colon it was more than 100 µM; in the test on T-47D breast it was more than 100 µM; in the test on MCF7 breast, more than 100 µM; with HOP-92 NSCLC, 57.3 µM. Moreover, the TGI in the test on ACHN renal is more than 100 µM; in the test with CCRF-CEM leukemia, 98.4 µM.
